Source: patent publication US5001222A, “Des-17-histidine-calcitonin” (Rhone-Poulenc Rorer Pharmaceuticals Inc., priority 1988, dated 1991)

Assays:
[1] = literature value, Experientia 32(9), 1104-1106 (1976); cited from earlier work
[2] = system: serum calcium concentration; assay: Biological assay of calcitonin analogs in vivo: reduction of serum calcium vs salmon calcitonin standard, 2x2 parallel line assay; parameters: species or system Rats; details: standard salmon calcitonin used in the assay
Protocol: Biological Assay of Calcitonin Analogs in Vivo
The biological potency of des-17-histidine-salmon calcitonin was determined by comparing the reduction of serum calcium concentration which followed administration by graded doses of des-His^17 -SCT and synthetic salmon calcitonin standard. Rats were divided into four groups of seven animals, and each group was assigned at random to a dose of standard or test solution. Low and high doses were chosen from the linear portion of the dose-response curve. For the salmon calcitonin standard, the values were 0.7 and 2.1 ng. peptide/100 g. body weight (BW). This dose approximates 3 and 9 MU/100 g. BW. Peptides were given by subcutaneous injection (0.2 ml/100 g. BW) and blood was withdrawn 1 hour later for serum calcium determination. Sera are processed and analyzed within two hours of collection. […]. Results were analyzed by a 2×2 parallel line assay [Gaddum, J. H., J. Pharm. Pharmacol., 6, 345 (1953)]. The standard salmon calcitonin used was independently determined to contain greater than 4,000 IU/mg. des-His^17 -SCT assayed at 4250 IU/mg.

Row | Compound | hypocalcemic potency [1] | potency content of the standard, independently determined [2]
1 | eel calcitonin [synthetic eel calcitonin] | around 4300 IU/mg. | 
2 | (1,7-alpha-L-amino-suberic acid) eel calcitonin | about 3400 IU/mg. | 
3 | CC(C)C[C@H](NC(=O)[C@H](CCCCN)NC(=O)CNC(=O)[C@H](CC(C)C)NC(=O)[C@@H](NC(=O)[C@@H]1CSSC[C@H](N)C(=O)N[C@@H](CO)C(=O)N[C@@H](CC(N)=O)C(=O)N[C@@H](CC(C)C)C(=O)N[C@@H](CO)C(=O)N[C@@H]([C@@H](C)O)C(=O)N1)C(C)C)C(=O)N[C@@H](CO)C(=O)N[C@@H](CCC(N)=O)C(=O)N[C@@H](CCC(=O)O)C(=O)N[C@@H](CC(C)C)C(=O)N[C@@H](Cc1c[nH]cn1)C(=O)N[C@@H](CCCCN)C(=O)N[C@@H](CC(C)C)C(=O)N[C@@H](CCC(N)=O)C(=O)N[C@H](C(=O)N[C@@H](Cc1ccc(O)cc1)C(=O)N1CCC[C@H]1C(=O)N[C@@H](CCCNC(=N)N)C(=O)N[C@H](C(=O)N[C@@H](CC(N)=O)C(=O)N[C@H](C(=O)NCC(=O)N[C@@H](CO)C(=O)NCC(=O)N[C@H](C(=O)N1CCC[C@H]1C(N)=O)[C@@H](C)O)[C@@H](C)O)[C@@H](C)O)[C@@H](C)O [standard salmon calcitonin, Salmon calcitonin] |  | greater than 4,000 IU/mg
